Results as given in patent US5707838A, “Antibiotic produced by Pseudomonas sp. and process for the preparation thereof” (priority 1994, dated 1998).

System: M. gallisepticum (MG) field-isolated strain T
Assay: In vivo test on chickens inoculated with M. gallisepticum in right air sacs
Conditions: oral, 5 chickens tested, autopsy 7th day

| SMILES | No. of lesions of right air sacs: -- (1 × 50 mg/kg) | No. of lesions of right air sacs: Moderate to severe (1 × 50 mg/kg) | No. of lesions of right air sacs: Slight (1 × 50 mg/kg) | No. of lesions of right air sacs: -- (1 × 100 mg/kg) | No. of lesions of right air sacs: Moderate to severe (1 × 100 mg/kg) | No. of lesions of right air sacs: Slight (1 × 100 mg/kg) | No. of lesions of right air sacs: -- (1 × 200 mg/kg) | No. of lesions of right air sacs: Moderate to severe (1 × 200 mg/kg) | No. of lesions of right air sacs: Slight (1 × 200 mg/kg) |
| --- | --- | --- | --- | --- | --- | --- | --- | --- | --- |
| CN(C)[C@@H]1C(O)=C(C(N)=O)C(=O)[C@@]2(O)C(O)=C3C(=O)c4c(O)ccc(Cl)c4[C@@](C)(O)[C@H]3C[C@@H]12 [CTC, Chlortetracycline] | 1 | 3 | 1 | 2 | 2 | 1 |  |  |  |
| CC[C@H]1OC(=O)C[C@@H](O)[C@H](C)[C@@H](O[C@@H]2O[C@H](C)[C@@H](O[C@H]3C[C@@](C)(O)[C@@H](O)[C@H](C)O3)[C@H](N(C)C)[C@H]2O)[C@@H](CC=O)C[C@@H](C)C(=O)/C=C/C(C)=C/[C@@H]1CO[C@@H]1O[C@H](C)[C@@H](O)[C@@H](OC)[C@H]1OC [TS, Tylosin] |  |  |  | 1 | 4 | 0 | 0 | 2 | 3 |
